Source: PubChem BioAssay AID256 (DTP/NCI, 2004)
Several values for one entry are separate records, joined by “and”; a condition that tells them apart may be missing. Equal values may be shown once. Toxic doses and inconclusive results are not listed.

Test system: CD2F1 mice, L1210 leukemia ip, survival T/C
Assay: NCI In Vivo Anticancer Drug Screen. Data for tumor model L1210 Leukemia (intraperitoneal) in CD2F1 (CDF1) mice
Conditions: endpoint: mean survival time, higher = longer survival
Outline: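 Tumor-bearing mice (transplanted tumor) were split into treated and vehicle control groups, and the measured endpoint of each treated group was divided by that of its vehicle controls.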

[1] = dose: 50.0 mg/kg/injection, schedule: Q01DX009 (ip), vehicle: saline
[2] = dose: 12.5 mg/kg/injection, schedule: Q01DX009 (ip), vehicle: saline
[3] = dose: 25.0 mg/kg/injection, schedule: Q01DX009 (ip), vehicle: saline
[4] = dose: 200.0 mg/kg/injection, schedule: Q04DX003 (ip), vehicle: saline with Tween-80
[5] = dose: 100.0 mg/kg/injection, schedule: Q04DX003 (ip), vehicle: saline with Tween-80
[6] = dose: 400.0 mg/kg/injection, schedule: Q04DX003 (ip), vehicle: saline with Tween-80
[7] = dose: 100.0 mg/kg/injection, schedule: Q04DX002 (ip), vehicle: saline with Tween-80
[8] = dose: 200.0 mg/kg/injection, schedule: Q04DX002 (ip), vehicle: saline with Tween-80
[9] = dose: 50.0 mg/kg/injection, schedule: Q01DX009 (ip), vehicle: saline with Tween-80
[10] = dose: 100.0 mg/kg/injection, schedule: Q01DX009 (ip), vehicle: saline with Tween-80
[11] = dose: 200.0 mg/kg/injection, schedule: Q01DX009 (ip), vehicle: saline with Tween-80
[12] = dose: 100.0 mg/kg/injection, schedule: Q04DX003 (ip), vehicle: saline
[13] = dose: 200.0 mg/kg/injection, schedule: Q04DX003 (ip), vehicle: saline
[14] = dose: 400.0 mg/kg/injection, schedule: Q04DX003 (ip), vehicle: saline
[15] = dose: 12.5 mg/kg/injection, schedule: Q01DX009 (ip), vehicle: saline with Tween-80
[16] = dose: 25.0 mg/kg/injection, schedule: Q01DX009 (ip), vehicle: saline with Tween-80

With `CC(C)(C)c1cc(CN2CCCC(O)C2)c(O)c(-c2ccccc2)c1` (stereo not drawn) the T/C [1] was 107 % of control and the T/C (dose: 100.0 mg/kg/injection, schedule: Q01DX009 (ip), vehicle: saline) was 104 % of control.

`CCCCCCCCCCCCCCCC(=O)Nc1ccn(C2OC(CO)C(O)C2O)c(=O)n1` (stereo not drawn) was tested, and the T/C [2] was 213 % of control and 268 % of control, the T/C [3] was 189 % of control and 270 % of control and the T/C [1] was 225 % of control and 307 % of control. For the same compound, the T/C (dose: 50.0 mg/kg/injection, schedule: Q04DX002 (ip), vehicle: saline) was 331 % of control, the T/C (dose: 100.0 mg/kg/injection, schedule: Q04DX002 (ip), vehicle: saline) was 344 % of control and 345 % of control and the T/C (dose: 200.0 mg/kg/injection, schedule: Q01DX009 (ip), vehicle: saline) was 95 % of control. The T/C (dose: 200.0 mg/kg/injection, schedule: Q04DX002 (ip), vehicle: saline) was 198 % of control.

`CC(C)C12CCC(=O)C=C1CCCC2O` (stereo not drawn) was tested, and the T/C (dose: 100.0 mg/kg/injection, schedule: Q04DX003 (ip), vehicle: saline sonified) was 100 % of control, the T/C (dose: 200.0 mg/kg/injection, schedule: Q04DX003 (ip), vehicle: saline sonified) was 100 % of control and the T/C (dose: 400.0 mg/kg/injection, schedule: Q04DX003 (ip), vehicle: saline sonified) was 97 % of control.

In the case of `COc1ncn(C2CC(OC(=O)c3ccc(C)cc3)C(COC(=O)c3ccc(C)cc3)O2)c(=O)n1` (stereo not drawn), the T/C [4] is reported as 86 % of control.

`CSC(=C[N+](=O)[O-])SC` was tested, and the T/C (dose: 25.0 mg/kg/injection, schedule: Q01DX009 (ip), vehicle: Klucel (hydroxypropylcellulose) (HPC)) was 97 % of control and the T/C (dose: 50.0 mg/kg/injection, schedule: Q01DX009 (ip), vehicle: Klucel (hydroxypropylcellulose) (HPC)) was 106 % of control.

`COc1ccc(Cl)cc1N` was tested, and the T/C [5] was 94 % of control, the T/C [4] was 92 % of control and the T/C [6] was 96 % of control.

In the case of `CC(=O)C(C#N)c1c(C)cc(C)cc1C` (stereo not drawn), the T/C (dose: 37.5 mg/kg/injection, schedule: Q01DX009 (ip), vehicle: saline) is reported as 96 % of control, the T/C (dose: 75.0 mg/kg/injection, schedule: Q01DX009 (ip), vehicle: saline) is reported as 98 % of control and the T/C (dose: 150.0 mg/kg/injection, schedule: Q01DX009 (ip), vehicle: saline) is reported as 96 % of control.

For `Cc1nc(-c2cccc(Cl)c2)oc1-c1ccccc1`, the T/C [7] was 115 % of control and the T/C [8] was 121 % of control.

`CCOC(=O)C1CC1C(=O)OC` (stereo not drawn) was tested, and the T/C [9] was 90 % of control, the T/C [10] was 88 % of control and the T/C [11] was 92 % of control.

`CCC(CC)(C(N)=O)C(N)=O` was tested, and the T/C [7] was 108 % of control, the T/C [8] was 100 % of control and the T/C (dose: 400.0 mg/kg/injection, schedule: Q04DX002 (ip), vehicle: saline with Tween-80) was 100 % of control.

In the case of `O=C(O)C1(O)C[C@@H](O)C(O)[C@H](O)C1` (stereo partly drawn), the T/C (dose: 100.0 mg/kg/injection, schedule: Q01DX001 (ip), vehicle: saline) is reported as 102 % of control, the T/C [12] is reported as 108 % of control and the T/C (dose: 200.0 mg/kg/injection, schedule: Q01DX001 (ip), vehicle: saline) is reported as 96 % of control. For the same compound, the T/C [13] was 98 % of control, the T/C (dose: 400.0 mg/kg/injection, schedule: Q01DX001 (ip), vehicle: saline) was 100 % of control and the T/C [14] was 102 % of control.

`CCN=C=NCCCN(C)C` was tested, and the T/C (dose: 6.25 mg/kg/injection, schedule: Q01DX009 (ip), vehicle: saline) was 105 % of control, the T/C [2] was 110 % of control and the T/C [3] was 100 % of control.

With `CCCC[N+](=O)[O-]` the T/C [12] was 98 % of control, the T/C [13] was 100 % of control and the T/C [14] was 102 % of control.

With `O=C(CNC(=O)Nc1cccc(C(F)(F)F)c1)N/N=C/c1ccccc1O` the T/C [15] was 95 % of control, the T/C [16] was 87 % of control and the T/C [9] was 88 % of control. The T/C [10] was 100 % of control and the T/C [11] was 103 % of control.

For `OCC1OC(O)C(O)C(O)C1O` (stereo not drawn), the T/C [12] was 103 % of control, the T/C [13] was 98 % of control and the T/C [14] was 98 % of control.

`Cc1cccc(C(=O)CC(O)(C(F)(F)F)C(F)(F)F)c1` was tested, and the T/C [10] was 98 % of control, the T/C [11] was 95 % of control and the T/C (dose: 400.0 mg/kg/injection, schedule: Q01DX009 (ip), vehicle: saline with Tween-80) was 104 % of control.

`CC1=CC(=NN=c2cc(C)n([O-])c(C)c2)C=C(C)[N+]1=O` was tested, and the T/C [15] was 104 % of control, the T/C (dose: 12.5 mg/kg/injection, schedule: Q01DX009 (ip), vehicle: suspension in saline) was 108 % of control and the T/C [16] was 108 % of control. The T/C (dose: 25.0 mg/kg/injection, schedule: Q01DX009 (ip), vehicle: suspension in saline) was 110 % of control, the T/C [9] was 101 % of control and the T/C (dose: 50.0 mg/kg/injection, schedule: Q01DX009 (ip), vehicle: suspension in saline) was 106 % of control. For the same compound, the T/C (dose: 100.0 mg/kg/injection, schedule: Q01DX009 (ip), vehicle: suspension in saline) was 104 % of control, the T/C [11] was 106 % of control and the T/C (dose: 200.0 mg/kg/injection, schedule: Q01DX009 (ip), vehicle: suspension in saline) was 166 % of control.

`CCOc1ccc(-c2nc(N)nc(N)n2)cc1` was tested, and the T/C (dose: 12.5 mg/kg/injection, schedule: Q01DX009 (ip), vehicle: water) was 101 % of control, the T/C (dose: 25.0 mg/kg/injection, schedule: Q01DX009 (ip), vehicle: water) was 97 % of control and the T/C (dose: 50.0 mg/kg/injection, schedule: Q01DX009 (ip), vehicle: water) was 97 % of control. For the same compound, the T/C (dose: 100.0 mg/kg/injection, schedule: Q01DX009 (ip), vehicle: water) was 97 % of control and the T/C (dose: 200.0 mg/kg/injection, schedule: Q01DX009 (ip), vehicle: water) was 97 % of control.

In the case of `Cc1cc(N/N=c2/c3ccccc3n(O)c3c2ccc2ccccc23)ccc1O`, the T/C [5] is reported as 104 % of control, the T/C [4] is reported as 104 % of control and the T/C [6] is reported as 104 % of control.

In the case of `NP(=O)(Oc1cccc2c(OP(N)(=O)N(CCCl)CCCl)cccc12)N(CCCl)CCCl` (stereo not drawn), the T/C (dose: 31.25 mg/kg/injection, schedule: Q01DX001 (ip), vehicle: distilled water + Tween-80) is reported as 95 % of control, the T/C (dose: 62.5 mg/kg/injection, schedule: Q01DX001 (ip), vehicle: distilled water + Tween-80) is reported as 95 % of control and the T/C (dose: 125.0 mg/kg/injection, schedule: Q01DX001 (ip), vehicle: distilled water + Tween-80) is reported as 95 % of control. The T/C (dose: 250.0 mg/kg/injection, schedule: Q01DX001 (ip), vehicle: distilled water + Tween-80) was 97 % of control and the T/C (dose: 500.0 mg/kg/injection, schedule: Q01DX001 (ip), vehicle: distilled water + Tween-80) was 95 % of control.

With `CN(C)C1c2ccccc2-c2ccc([N+](=O)[O-])cc21` (stereo not drawn) the T/C (dose: 50.0 mg/kg/injection, schedule: Q01DX001 (ip), vehicle: carboxymethylcellulose (CMC)) was 107 % of control, the T/C (dose: 100.0 mg/kg/injection, schedule: Q01DX001 (ip), vehicle: carboxymethylcellulose (CMC)) was 101 % of control and the T/C (dose: 200.0 mg/kg/injection, schedule: Q01DX001 (ip), vehicle: carboxymethylcellulose (CMC)) was 101 % of control. The T/C (dose: 400.0 mg/kg/injection, schedule: Q01DX001 (ip), vehicle: carboxymethylcellulose (CMC)) was 101 % of control.

`O=C1CCc2ccsc21` was tested, and the T/C (dose: 25.0 mg/kg/injection, schedule: Q04DX002 (ip), vehicle: saline with Tween-80) was 98 % of control, the T/C (dose: 50.0 mg/kg/injection, schedule: Q04DX002 (ip), vehicle: saline with Tween-80) was 91 % of control and the T/C [7] was 106 % of control.

For `O=C(C=C(C(F)(F)F)C(F)(F)F)c1cccc(S(=O)(=O)F)c1`, the T/C (dose: 100.0 mg/kg/injection, schedule: Q01DX001 (ip), vehicle: saline with Tween-80) was 107 % of control.

In the case of `C=CC(CN1CC1)OC(C)=O` (stereo not drawn), the T/C (dose: 2.5 mg/kg/injection, schedule: Q03DX003 (ip), vehicle: saline) is reported as 107 % of control, the T/C (dose: 2.5 mg/kg/injection, schedule: Q04DX003 (ip), vehicle: saline) is reported as 100 % of control and the T/C (dose: 3.75 mg/kg/injection, schedule: Q01DX009 (ip), vehicle: saline) is reported as 159 % of control. The T/C (dose: 5.0 mg/kg/injection, schedule: Q01DX007 (ip), vehicle: saline) was 172 % of control, the T/C (dose: 5.0 mg/kg/injection, schedule: Q01DX009 (ip), vehicle: saline) was 160 % of control and the T/C (dose: 5.0 mg/kg/injection, schedule: Q03DX003 (ip), vehicle: saline) was 121 % of control. The T/C (dose: 5.0 mg/kg/injection, schedule: Q04DX003 (ip), vehicle: saline) was 111 % of control, the T/C (dose: 7.5 mg/kg/injection, schedule: Q01DX009 (ip), vehicle: saline) was 206 % of control and 249 % of control and the T/C (dose: 10.0 mg/kg/injection, schedule: Q04DX003 (ip), vehicle: saline) was 153 % of control. The T/C (dose: 30.0 mg/kg/injection, schedule: Q01DX009 (ip), vehicle: saline) was 91 % of control.

For `CCO[Si](OCC)OCC`, the T/C (dose: 75.0 mg/kg/injection, schedule: Q01DX001 (ip), vehicle: saline) was 108 % of control.
